The IC50 is the concentration that inhibits the measured activity by half. A low value points to greater potency.

Values after ≈ are worked out from the molar mass of the structure shown. Where only a bound is given, the exact number is not on record here.

Consider seven compounds from paper PMC9738192, “Lupane Triterpene Derivatives Improve Antiproliferative Effect on Leukemia Cells through Apoptosis Induction” (Molecules, 2022).

The test system of experiment [1] is K562 cell line. Nature of the experiment: Assessment of intracellular reactive oxygen species (CM-H2DCFDA). Type of experiment: cell-based, human. The protocol: Cells (1× 10^5) were cultured in 12-well plates and were stained with 10 μM of chloromethyl 2′,7′-dichlorodihydrofluorescein diacetate (CM-H2DCFDA) for 30 min at 37 °C. Briefly, the cells were treated with compound 1m at two different concentrations (19.5 and 39.0 µg/mL) and control (H2O2 at 50 µM) to later be incubated for 2 and 4 h. After this time, cells were analyzed using CytoFlex flow cytometry (Beckman Coulter, Indianapolis, IN, USA).

The next experiment relates to Vero cell line. Nature of the experiment: Bioassay of viability in Vero cell line (SRB). Type of experiment: cell-based, green monkey. Conditions: Chlorocebus sabaeus; Vero normal cell line, 48 h. The text has this:
(§1) Chronic myeloid leukemia (K562; ATCC CCL-243), acute myeloid leukemia (HL60; ATCC CCL-240), and green monkey kidney cells (Vero, ATCCCCL-81) from the American Type Culture Collection (ATCC) were provided by María Antonieta Chávez Gónzalez from Unidad de Investigación Oncológica, Hospital de Oncología, Centro Médico Nacional, Instituto Mexicano del Seguro Social (IMSS, Ciudad de México, México). The K562 cell line was maintained with RPMI medium at 10% FBS, the HL60 cell line was maintained with IMDM medium at 20% FBS, and the VERO cell line was maintained with DMEM medium at 10% FBS; 1% penicillin-streptomycin was added to both cell lines and incubated at an atmosphere of culture with 95% humidity and 5% CO2 at 37 °C. All evaluation was performed between 4 and 5 cell passages.
The cells (1 × 10^4 cells/well) were seeded onto 96-well plates and incubated at 37 °C and 5% CO2 until reaching 70–80% confluence. The medium was replaced with fresh medium containing the […] different concentrations (0.1, 1, 10, and 100 μg/mL) of compounds for 48 h. After 100 μL of 10% trichloroacetic acid were added to each well, and cells were incubated for 30 min at 4 °C. Then the supernatant was removed, 100 μL of sulforhodamine B (SRB) at 0.1% with 1% of acetic acid were added, and incubated again for 15 min. Subsequently, washings were carried out with 1% acetic acid; and finally, the dye was solubilized with 200 uL of tris-base at 10 mM; and the optical density was measured at 560 nm using a GloMax spectrophotometer (Promega, WI, USA).
(§2) All cytometric data were analyzed using FlowJo^TM v10.6 software. Results of viability are expressed as the concentration of agent that reduces cell growth by 50% (IC50), calculated by GraphPad Prism 5 software. The data were expressed as means ± SEM. Statistical significance was calculated with a one-way analysis of variance (ANOVA) followed by Dunnett’s post-hoc test, applying a p < 0.05 significance level.

The test system of a further experiment is HL60 cell line. Nature of the experiment: Bioassay of viability in leukemic cell lines (DAPI, flow cytometry). The class given is cell-based, human. Conditions: for IC50: Homo sapiens, HL-60, HL60, 48 h.
From the text: as §1
(§3) In all cases, medium with DMSO (0.1%) was used as a negative control, and etoposide was used as positive control for K562, HL60, Vero cell lines, and normal MNC. All tests were carried out in triplicate.
(§4) A total of 2 × 10^5 cells/well were cultured into 24-well plates and treated with different concentrations of four compounds (0.1, 1, 10, and 100 μg/mL) for 48 h. At the end of this time, the cells were collected and stained with 4′,6-diamidino-2-phenylindole dihydrochloride (DAPI) at 500 ng/mL for 30 min, according to manufacturer instructions, for 15 min in darkness. The samples were then analyzed by flow cytometry using a CytoFlex flow cytometer (Beckman Coulter, Indianapolis, IN, USA).
as §2
Background: Flow cytometry measures light scatter and fluorescence of single cells or particles in a stream.

In experiment [2] the test system is K562 cell line. Described as above. The class given is cell-based, human. Conditions: for IC50: Homo sapiens, K562, 48 h.
From the text: as §1, §3, §4, §2

For experiment [3], the system named is K562 cells. In words: Cell cycle assay (DAPI, flow cytometry). Type of experiment: cell-based, human. On the procedure:
One million cells of K562 were cultured in 12-well plates and incubated for 18, 24, and 48 h with compound T1m at two different concentrations (19.5 and 39.0 μg/mL). After this time, the cells were collected and centrifuged at 300× g at room temperature for 5 min. The cells were resuspended in PBS, added absolute ethanol on ice, and incubated for 1 h at 4 °C. After that. Cells were centrifuged at 300× g at 4 °C for 5 min. Next, cells were washed with PBS 3% FBS and permeabilized for 20 min with 0.1% triton. After, the cells were stained with DAPI at 500 ng/mL for 1 h. After this procedure, cells were analyzed using […]. Cells analysis was carried out in an Attune flow cytometer (Thermo Fisher Scientific, Carlsbad, CA, USA).

Experiment [4] concerns K562 cell line. Nature of the experiment: Assessment of mitochondrial membrane potential (rhodamine 123). Type of experiment: cell-based, human. The note with it: 18 h, Rho-123. On the procedure:
Cells (1× 10^5) were cultured in 12-well plates and treated with compound 1m at two different concentrations (19.5 and 39.0 µg/mL), to later be incubated for 18 h. After this time, cells were stained with 5 μM of rhodamine 123 (Rho-123) and incubated for 30 min at 37 °C. Briefly, cells were washed with PBS and analyzed using a Cytoflex flow cytometer (Beckman Coulter, Indianapolis, IN, USA).

In experiment [5] the test system is peripheral blood mononuclear cells (MNC). Nature of the experiment: Viability test in normal mononuclear cells (DAPI, flow cytometry). Type of experiment: cell-based. The note with it: Homo sapiens, PBMC, 48 h. The protocol:
Normal mononuclear cells were obtained from normal human peripheral blood monocytes and donated by the corresponding author (Moo-Puc) of the manuscript submitted. The MNC was purified with FicollPaque Plus (Pharmacia Biotech, Uppsala, Sweden) by centrifugation at 400× g at room temperature for 30 min according to the manufacturer’s protocol. Once the MNC were obtained, they were resuspended in RPMI medium (ATCC) with 10% FBS, and they were counted using a hemocytometer, previously stained with a trypan blue solution, verifying the viability of 95% [61].
Cells were plated at 2 × 10^5 cells/well in 24-well plates and incubated with different concentrations of compounds T1m (0.1, 1, 10, and 100 μg/mL) for 48 h. RPMI with 10% FBS was used as a culture medium for cell growth. After this time, cells were collected, washed with PBS, and stained with DAPI at 500 ng/mL for 30 min, according to manufacturer instructions. Cells analysis was carried out in a CytoFlex flow cytometer (Beckman Coulter, Indianapolis, IN, USA).
All cytometric data were analyzed using FlowJo^TM v10.6 software. […] The data were expressed as means ± SEM. Statistical significance was calculated with a one-way analysis of variance (ANOVA) followed by Dunnett’s post-hoc test, applying a p < 0.05 significance level.

The test system of experiment [6] is K562 cells. Nature of the experiment: Apoptosis assay (annexin V-FITC / 7-AAD). Type of experiment: cell-based, human. On the procedure: Cells (2 × 10^5) were cultured in 24-well plates and treated with compound T1m at two different concentrations (19.5 and 39.0 µg/mL), to later be incubated for 18, 24, and 48 h. After this time, cells were washed with PBS and stained with annexin V-FITC and 7-AAD apoptosis kit (BD Bioscience) and incubated in the dark for 15 min. Then they were analyzed by CytoFlex flow cytometry (Beckman Coulter, Indianapolis, IN, USA).

On to `OO` [Compound H2O2, H2O2, reference compound], for which the “ROS increase vs negative control” value in the experiment with K562 cell line [1] (K562, damage control (50 µM), 2 h) was “seven-fold”.

On to `C=C(C)[C@@H]1CC[C@]2(C(=O)O)CC[C@]3(C)C(CCC4[C@@]5(C)CC[C@@H](O)[C@](C)(CO)C5CC[C@]43C)C12` (stereo partly drawn) [Compound T1, 3α,24-dihydroxylup-20(29)-en-28-oic acid], for which the IC50 in the experiment on Vero cell line is 137.2 ± 1.1 µg/mL (≈ 290 µM); with HL60 cell line it was over 100 µg/mL; in the experiment with K562 cell line [2], 100 ± 1 µg/mL (≈ 212 µM). For the same compound, the “selectivity index (IS)” value in the experiment on K562 cell line [2] (IC50 Vero over IC50 K562) is given as 1.37.

Take `C=C(C)[C@@H]1CC[C@]2(C(=O)O)CC[C@]3(C)C(CCC4[C@@]5(C)CC[C@@H](OC(C)=O)[C@](C)(CO)C5CC[C@]43C)C12` (stereo partly drawn) [Compound T1Ac, 3α-acetyl-24-hydroxylup-20(29)-en-28-oic acid]: the IC50 was over 200 µg/mL in the experiment on Vero cell line, over 100 µg/mL in the experiment on HL60 cell line and over 100 µg/mL with K562 cell line [2].

In the case of `C=C(C)[C@@H]1CC[C@]2(C(=O)O)CC[C@]3(C)C(CCC4[C@@]5(C)CC[C@@H](OC)[C@](C)(CO)C5CC[C@]43C)C12` (stereo partly drawn) [Compound T1m, 3α-methoxy-24-hydroxylup-20(29)-en-28-oic acid], the “cell cycle distribution vs negative control” value with K562 cells [3] (K562, 19.5 μg/mL, 18 h) is recorded as “No difference”. For the same compound, the sub-G0 population stood at 7.29 ± 0.05% with K562 cells [3] (K562, 39.0 μg/mL, 18 h); 13.30 ± 1.20% in the experiment on K562 cells [3] (K562, 39.0 μg/mL, 24 h); 85.85 ± 0.15% with K562 cells [3] (K562, at IC50 (39.0 μg/mL), 48 h). For the same compound, the “MMP (mitochondrial membrane potential) compared with negative control” value is on record as “approximately 45%” with K562 cell line [4] (K562, 19.5 μg/mL) and 67% in the experiment on K562 cell line [4] (K562, 39.0 μg/mL). For the same compound, the IC50 came out at 66.8 ± 1 µg/mL (≈ 137 µM) in the experiment with Vero cell line, 68.6 ± 1.2 µg/mL (≈ 141 µM) in the experiment with HL60 cell line, 39.5 ± 1.1 µg/mL (≈ 81.1 µM) with K562 cell line [2] and 86.5 ± 1.2 µg/mL (≈ 178 µM) in experiment [5]. Besides, the “selectivity index (IS)” value is 1.26 with HL60 cell line (IC50 MNC over IC50 HL60), 2.19 in the experiment with K562 cell line [2] (IC50 MNC over IC50 K562) and 1.69 in the experiment on K562 cell line [2] (IC50 Vero over IC50 K562). Moreover, the “ROS increase vs negative control” value in the experiment with K562 cell line [1] (K562, 19.5 μg/mL, 2 h) is “five-fold”; in the experiment on K562 cell line [1] (K562, 19.5 μg/mL, 4 h), “six-fold”; with K562 cell line [1] (K562, 39.0 μg/mL, 2 h) it was “seven-fold”; with K562 cell line [1] (K562, 39.0 μg/mL, 4 h), “nine-fold”. Moreover, the “apoptotic cell population (positive annexin V-FITC)” value in the experiment on K562 cells [6] (K562, 19.5 μg/mL, 48 h) came to 11.91 ± 1.04%; with K562 cells [6] (K562, 39.0 μg/mL, 18 h), 12.50 ± 0.65%; in the experiment with K562 cells [6] (K562, 39.0 μg/mL, 48 h), 27.47 ± 1.23%; in the experiment with K562 cells [6] (K562, at IC50 (39.0 μg/mL), 24 h) it was 24.35 ± 1.04%.

In the case of `C=C(C)[C@@H]1CC[C@]2(C(=O)O)CC[C@]3(C)C(CCC4[C@@]5(C)CC[C@H]6OC(C)(C)OC[C@@]6(C)C5CC[C@]43C)C12` (stereo partly drawn) [Compound T2, 3α,23-O-isopropylidenyl-3α,23-dihydroxylup-20(29)-en-28-oic acid], the IC50 was over 200 µg/mL in the experiment on Vero cell line, over 100 µg/mL in the experiment on HL60 cell line and over 100 µg/mL with K562 cell line [2].

For the compound `C=C(C)[C@@H]1CC[C@]2(C(=O)OC)CC[C@]3(C)C(CCC4[C@@]5(C)CC[C@H]6OC(C)(C)OC[C@@]6(C)C5CC[C@]43C)C12` (stereo partly drawn) [Compound T2COOMe, methyl ester of 3α,23-O-isopropylidenyl-3α,23-dihydroxylup-20(29)-en-28-oic acid], the IC50 with Vero cell line was over 200 µg/mL; in the experiment with HL60 cell line, over 100 µg/mL; with K562 cell line [2], over 100 µg/mL.

Consider `COc1cc([C@@H]2c3cc4c(cc3[C@@H](O[C@@H]3O[C@@H]5CO[C@@H](C)O[C@H]5[C@H](O)[C@H]3O)[C@H]3COC(=O)[C@H]23)OCO4)cc(OC)c1O` [Etoposide, etoposide, reference compound], for which, in the experiment on K562 cells [3] (K562, 14.7 μg/mL, 18 h, positive control), the G2 population entry is listed as “increase”. For the same compound, the IC50 with Vero cell line is 29.4 ± 1.1 µg/mL (≈ 50 µM); in the experiment with HL60 cell line, 1.3 ± 0.3 µg/mL (≈ 2.21 µM); in the experiment on K562 cell line [2] it was 14.7 ± 1.2 µg/mL (≈ 25 µM); in experiment [5], over 100 µg/mL. The “selectivity index (IS)” value in the experiment on HL60 cell line (IC50 MNC over IC50 HL60) is on record as over 76.92; with HL60 cell line (IC50 Vero over IC50 HL60) it was 22.63; in the experiment on K562 cell line [2] (IC50 MNC over IC50 K562) it was over 6.80; in the experiment with K562 cell line [2] (IC50 Vero over IC50 K562), 2.00. Further, the “ROS increase vs negative control” value in the experiment on K562 cell line [1] (K562, positive control, 2 h) is “six-fold”. The “apoptotic cell population (positive annexin V-FITC)” value in the experiment with K562 cells [6] (K562, positive control, 18 h) came to 13.34 ± 0.04%; in the experiment on K562 cells [6] (K562, positive control, 24 h) it was 17.91 ± 0.06%; in the experiment on K562 cells [6] (K562, positive control, 48 h), 32.60 ± 0.55%.
